In US20240262856A1, “NOVEL SPINOSYN COMPOUNDS” (priority 2021, published 2024):
Values after ≈ are worked out from the molar mass of the structure shown. Read-outs that look alike come from different tables or passages of the source.

Key:
[1] = test system: honey bees (Apis melifera carnica, Pollman 1879); assay: Single dose acute oral toxicity test on adult worker honey bees; type: in vivo
Protocol: Toxicity of the compounds of this invention towards honey bees (Apis melifera carnica, Pollman 1879) was assessed in comparison with commercially available samples of spinosad (LGC (Dr. Ehrenstorfer); Product code: DRE-C16972830) and the naturally produced compound butenyl spinosyn alpha 1. Solutions of spinosyn compounds were prepared in 100 mM ammonium acetate, pH=5, and later diluted in 50% (500 g/L) sucrose solution in water to final concentrations. Two final concentrations were used for each compound, 7.76 μmol/L and 15.53 μmol/L.
Single dose acute oral toxicity tests were conducted on adult worker bees according to previously described standard methods (Medrzycki at el., (2013)). Each compound and condition were tested in two parallels. Briefly, each parallel experiment consisted of 5 cages with 20 honey bees per cage. […] After uptake of the solutions honey bees were supplied with standard 50% sucrose solution and observed at 24 h and 48 h and the number of dead and live bees was estimated. Ammonium acetate solution with pH 5 was used as the negative control.

Kinetic solubility assay = type: physicochemical; conditions: 24 hours at room temperature (25±2° C.)
Protocol: Solubility of the compounds of the invention was assessed using kinetic solubility assay and compared to solubility of butenyl spinosyn. Stock solutions of spinosyn compounds were prepared in DMSO at 10 mM concentration). 10 uL of the stock solutions were added into 490 of in K.S. 5.4 buffer of pH 5.4 (80 mM phosphoric acid, acetic acid, boric acid buffer, adjusted the pH to pH 5.4 with 1 N HCl and 1N NaOH) or K.S. 7.4 buffer with pH of 7.4 (80 mM phosphoric acid, acetic acid, boric acid buffer, adjusted the pH to pH 7.4 with 1 N HCl and 1N NaOH). The solutions were incubated with shaking at room temperature (25±2° C.) for 24 hours. 200 uL of each solution were then transferred into a new MultiScreen filter plate (Membrane of polycarbonate) and filtered by millipore vacuum manifold, and the filtrate was collected. The concentrations of tested compounds in the filtered samples were analyzed by HPLC analysis calibrated by a standard curve generated by injection of 3 standard solutions of the relevant compound with concentrations of 1, 20, 200 μM.

[2] = UV-stability of 5 mM solutions in acetonitrile, remaining compound by HPLC; type: physicochemical; conditions: for share of remaining compound 0 h: start value for both aliquots; for Purity changing: 0 h to 10 h
Protocol: Synthesized spinosyn compounds were used to prepare 5 mM solutions in acetonitrile. The solution was divided in 2 aliquots and one aliquot was exposed to UV light at 254 nm and the other aliquot was incubated in the same conditions without UV light exposure. Quantities of remaining starting compounds were determined by HPLC after 0 h, 1 h, 5 h and 10 h.

[3] = test system: Ostrinia nubilalis larvae; assay: Insecticide efficacy on corn leaves dipped in compound solution and infested with L1 larvae (Henderson-Tilton method); type: in vivo; conditions: for Emax: Ostrinia nubilalis; for insecticidal activity on Ostrinia nubilalis larvae (in words): compared with Spinosad / spinetoram; for % Efficacy 3 days: 3 days post infestation; for % Efficacy 6 days: 6 days post infestation
Protocol: Insecticide activities of the compounds of this invention were assessed in comparison with commercially available samples of spinosad (LGC (Dr. Ehrenstorfer); Product code: DRE-C16972830) and spinetoram (LGC (Dr. Ehrenstorfer); Product code: DRE-C16972770) Solutions of spinosyn compounds were prepared by adding 0.05% Tween 80, lowering pH to 5.95 and sonicating. Two concentrations of each compound were used, 0.1 μg/mL and 0.3 μg/mL, with each condition tested in four parallels.
Freshly collected corn leaves were dipped into the prepared solutions. After dipping leaves were left to dry at room temperature for 1 hour. Each dry leaf was then infested with 4 larvae (development stage L1), and the experimental device was incubated at 21° C.-23° C. for 24 h in order to optimize insect development. At two timings post infestation (3 days and 6 days), the insecticide efficacy is evaluated from the number of living larvae using the Henderson-Tilton method. Untreated control was integrated for normalization and validation of larvae health.

[4] = test system: honey bees (Apis melifera carnica, Pollman 1879); conditions: previously established oral LD50 for honey bee; cited from earlier work
[5] = 0.078 nmol/bee oral single dose, 24 h after application
[6] = 0.078 nmol/bee oral single dose, 48 h after application
[7] = 0.155 nmol/bee oral single dose, 24 h after application
[8] = 0.155 nmol/bee oral single dose, 48 h after application
[9] = 25 °C, aqueous buffer, kinetic from dmso stock, K.S. 5.4 buffer pH 5.4, dose conc 200 μM, read-out: Kinetic Solubility pH = 5.4
[10] = 25 °C, aqueous buffer, kinetic from dmso stock, K.S. 7.4 buffer pH 7.4, dose conc 200 μM, read-out: Kinetic Solubility pH = 7.4
[11] = 72 h, read-out: % Efficacy 3 days, dose 0.1 μg a.i./ml, 3 days post infestation
[12] = 72 h, read-out: % Efficacy 3 days, dose 0.3 μg a.i./ml, 3 days post infestation
[13] = 144 h, read-out: % Efficacy 6 days, dose 0.1 μg a.i./ml, 6 days post infestation
[14] = 144 h, read-out: % Efficacy 6 days, dose 0.3 μg a.i./ml, 6 days post infestation

Molecule | % of surviving honey bees [1, 5] [%] | % of surviving honey bees [1, 6] [%] | % of surviving honey bees [1, 7] [%] | % of surviving honey bees [1, 8] [%] | solubility kinetic at 24 h (Kinetic solubility assay; [9]) [µM] | solubility kinetic at 24 h (Kinetic solubility assay; [10]) [µM] | share of remaining compound 0 h [2] [%] | Purity changing ([2]; under UV light at 254 nm) [%] | share of remaining compound 1 h ([2]; under UV light at 254 nm) [%] | share of remaining compound 5 h ([2]; under UV light at 254 nm) [%] | share of remaining compound 10 h ([2]; under UV light at 254 nm) [%] | Purity changing ([2]; without UV) | share of remaining compound 1 h ([2]; without UV) [%] | share of remaining compound 5 h ([2]; without UV) [%] | share of remaining compound 10 h ([2]; without UV) [%] | % Efficacy 3 days ([3]; dose 0.1 μg a.i./ml) [%] | % Efficacy 6 days ([3]; dose 0.1 μg a.i./ml) [%] | % Efficacy 3 days ([3]; dose 0.3 μg a.i./ml) [%] | % Efficacy 6 days ([3]; dose 0.3 μg a.i./ml) [%] | other results
CC/C=C/[C@H]1CCC[C@H](OC2CCC([N+](C)(C)COC(=O)C(C)(C)C)C(C)O2)[C@@H](C)C(=O)C2=C[C@@H]3[C@@H](C=CC4(OC)C[C@@H](OC5OC(C)C(OC)C(OC)C5OC)C[C@@H]34)[C@@H]2CC(=O)O1 (stereo partly drawn) [Compound J1A-H1] | 98 | 73 | 86 | 26 | – | – | – | – | – | – | – | – | – | – | – | – | – | – | – | –
CC/C=C/[C@H]1CCC[C@H](OC2CCC(N(C)C)C(C)O2)[C@@H](C)C(=O)C2=C[C@@H]3[C@@H](C=C[C@]4(OCC)C[C@@H](OC5OC(C)C(OC)C(OC)C5OC)C[C@@H]34)[C@@H]2CC(=O)O1 (stereo partly drawn) [Compound H2, 7-ethoxy butenyl spinosyn al] | – | – | – | – | 166 (≈ 133 µg/mL) | 7.68 (≈ 6.16 µg/mL) | 93.2 | −53.5 | 87.6 | 67.8 | 39.7 | −0.9% | 93.6 | 93.7 | 92.3 | – | – | – | – | –
CC/C=C/[C@H]1CCC[C@H](OC2CCC(N(C)C)C(C)O2)[C@@H](C)C(=O)C2=C[C@@H]3[C@@H](C=C[C@]4(O)C[C@@H](OC5OC(C)C(OC)C(OC)C5OC)C[C@@H]34)[C@@H]2CC(=O)O1 (stereo partly drawn) [Compound A1, 7-hydroxy butenyl spinosyn α1] | – | – | – | – | 192 (≈ 149 µg/mL) | 187 (≈ 144 µg/mL) | 90.7 | −38.5 | 86.6 | 71.3 | 52.2 | +0.2% | 90.7 | 90.8 | 90.9 | – | – | – | – | Emax [3, 11]: 2%; Emax [3, 12]: 15%; Emax [3, 13]: 2%; Emax [3, 14]: 19%
CC/C=C/[C@H]1CCC[C@H](OC2CCC([N+](C)(C)COC(=O)OC(C)C)C(C)O2)[C@@H](C)C(=O)C2=C[C@@H]3[C@@H](C=CC4(OC)C[C@@H](OC5OC(C)C(OC)C(OC)C5OC)C[C@@H]34)[C@@H]2CC(=O)O1 (stereo partly drawn) [Compound J7-H1] | 87 | 69 | 78 | 30 | – | – | – | – | – | – | – | – | – | – | – | – | – | – | – | –
CC/C=C/[C@H]1CCC[C@H](OC2CCC(N(C)C)C(C)O2)[C@@H](C)C(=O)C2=C[C@@H]3[C@@H](C=C[C@]4(OC)C[C@@H](OC5OC(C)C(OC)C(OC)C5OC)C[C@@H]34)[C@@H]2CC(=O)O1 (stereo partly drawn) [Compound H1, 7-methoxy butenyl spinosyn α1] | – | – | – | – | 183 (≈ 144 µg/mL) | 77.1 (≈ 60.8 µg/mL) | 96.0 | −22.5 | 95.6 | 87.5 | 73.5 | +0.7% | 96.5 | 96.9 | 96.7 | – | – | – | – | Emax [3, 11]: 27%; Emax [3, 12]: 58%; Emax [3, 13]: 89%; Emax [3, 14]: 100%; insecticidal activity on Ostrinia nubilalis larvae (in words) [3]: extremely potent insecticidal activity
spinetoram [Spinoteram, reference compound] | – | – | – | – | – | – | – | – | – | – | – | – | – | – | – | 58 | 81 | 85 | 96 | –
spinosad [SPN, reference compound] | – | – | – | – | – | – | – | – | – | – | – | – | – | – | – | 25 | 46 | 63 | 100 | LD50 [4]: 0.057 μg/bee
CC[C@H]1CCC[C@H](OC2CCC(N(C)C)C(C)O2)[C@@H](C)C(=O)C2=C[C@@H]3[C@@H](C=C[C@]4(OC)C[C@@H](OC5OC(C)C(OC)C(OC)C5OC)C[C@@H]34)[C@@H]2CC(=O)O1 (stereo partly drawn) [Compound H1a] | – | – | – | – | – | – | – | – | – | – | – | – | – | – | – | 15 | 41 | 64 | 93 | insecticidal activity on Ostrinia nubilalis larvae (in words) [3]: lower insecticidal activity
CCC=CC1CCCC(OC2CCC(N(C)C)C(C)O2)C(C)C(=O)C2=CC3C(C=CC4CC(OC5OC(C)C(OC)C(OC)C5OC)CC43)C2CC(=O)O1 (stereo not drawn) [Butenyl spinosyn, butenyl spinosyn α1, reference compound] | 57 | 37 | 32 | 6 | – | – | 90.0 | −30.4 | 88.6 | 70.9 | 59.6 | −0.6% | 90.6 | 90.7 | 89.4 | 33 | 56 | 79 | 100 | solubility kinetic at 24 h (Kinetic solubility assay; K.S. 5.4 buffer pH 5.4, dose conc 200 μM, read-out: Kinetic Solubility pH = 5.4): 183.17 µM (≈ 139 µg/mL); solubility kinetic at 24 h (Kinetic solubility assay; K.S. 7.4 buffer pH 7.4, dose conc 200 μM, read-out: Kinetic Solubility pH = 7.4): 3.52 µM (≈ 2.67 µg/mL); toxicity to honey bees in acute oral toxicity test (in words) ([1]; compared to the derivatives provided by this invention): higher toxicity to honey bees
